From patent US7897601B2, “Cannabinoid receptor modulators” (Intervet, Inc., priority 2006, dated 2011)

Target: T1, cannabinoid CB1 (Homo sapiens, UniProt P21554)
T1 construct: purchased
Assay: Competition binding assay for cannabinoid CB1 affinity (3H-CP55,940 displacement)
Procedure: Competition binding assays for cannabinoid CB1 and CB2 affinity were performed by incubating commercially purchased membranes prepared from cells expressing each receptor subtype (8 μg pro) with 0.5 nM ^3H-CP55,940, a non-selective cannabinoid agonist, along with concentrations of drug ranging from 0.0001-3 μM in Buffer A (5 mM MgCl2, 2.5 mM EDTA and […] BSA). Non-specific binding was defined in the presence of 10 μM CP55,940. For saturation studies, concentrations of ^3H-CP55,940 ranging from 0.1-5 nM were incubated with membranes in the presence and absence of 10 μM CP55,940. Assays were terminated after incubation for 1½ hours by rapid filtration onto 0.3% polyethylenamine treated GF/C filterplates using a BRANDEL cell harvester. […]
The dissociation constant (Kd) of ^3H-CP55,940 at the CB1 and CB2 receptor were determined by plotting specific binding at each concentration of radioligand, and analysis by non-linear regression. For competition studies, the concentration of each drug that inhibited 50 percent of ^3H-CP55,940 binding (IC50) was determined by non-linear regression analysis of the radioligand displacement curves. Affinity constants (Ki) were calculated using the equation derived by Cheng and Prusoff (1973), defined as: IC50/1+[conc. ligand/Kd].

T1 sequence (P21554 whole entry): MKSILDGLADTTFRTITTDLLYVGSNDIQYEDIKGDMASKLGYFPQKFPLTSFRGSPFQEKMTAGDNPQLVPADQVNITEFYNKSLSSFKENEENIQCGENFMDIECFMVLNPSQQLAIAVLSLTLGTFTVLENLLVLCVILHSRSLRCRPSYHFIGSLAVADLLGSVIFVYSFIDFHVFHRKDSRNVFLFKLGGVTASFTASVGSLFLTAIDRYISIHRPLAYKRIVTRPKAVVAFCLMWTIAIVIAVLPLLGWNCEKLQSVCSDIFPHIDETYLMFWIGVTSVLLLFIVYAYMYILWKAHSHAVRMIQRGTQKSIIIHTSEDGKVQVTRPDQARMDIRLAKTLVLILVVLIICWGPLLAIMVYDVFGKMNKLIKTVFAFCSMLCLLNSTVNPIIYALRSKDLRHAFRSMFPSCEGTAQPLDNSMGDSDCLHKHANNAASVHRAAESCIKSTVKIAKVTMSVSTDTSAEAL

## O=C(NC1CCCC1)C1CCC(c2ccc(Cl)cc2)=C(c2ccc(Cl)cc2)C1 (stereo not shown) [Compound 180]
  Ki: 1 to 10 nM
